Legend:
[1] = xn = mol fraction of the nth substance listed; conditions: transient hot wire
[2] = transient hot wire

CC(F)(F)F [1,1,1-trifluoroethane] + C=C(F)C(F)(F)F
[1], x1 = 0.5
Conditions | thermal conductivity [W/m/K]
265.44 K, 1220 kPa, Liquid | 0.0777
284.11 K, 2050 kPa, Liquid | 0.0715
285.09 K, 1060 kPa, Liquid | 0.0696
307.25 K, 2030 kPa, Liquid | 0.0625
307.34 K, 3050 kPa, Liquid | 0.0644
324.39 K, 3040 kPa, Liquid | 0.0585
334.34 K, 1080 kPa, Gas | 0.01836
354.13 K, 1170 kPa, Gas | 0.02059
354.52 K, 1730 kPa, Gas | 0.02034
373.86 K, 2750 kPa, Gas | 0.02379
374.86 K, 1900 kPa, Gas | 0.02277
393.8 K, 3090 kPa, Gas | 0.02622

[Ar] [argon]
[2], Gas
Conditions | thermal conductivity [W/m/K]
311.92 K, 20370 kPa | 0.02811
312.12 K, 24160 kPa | 0.03024
312.12 K, 31080 kPa | 0.0342
312.18 K, 27390 kPa | 0.03235
312.2 K, 25850 kPa | 0.03134
312.35 K, 27380 kPa | 0.0324
312.59 K, 17170 kPa | 0.02649
312.61 K, 13790 kPa | 0.02465
312.73 K, 10320 kPa | 0.02285

FC(F)C(F)(F)F [pentafluoroethane] + C=C(F)C(F)(F)F
[1], x1 = 0.5
Conditions | thermal conductivity [W/m/K]
259.84 K, 1110 kPa, Liquid | 0.0717
284.9 K, 1150 kPa, Liquid | 0.0674
285.15 K, 1880 kPa, Liquid | 0.0686
304.07 K, 2060 kPa, Liquid | 0.0644
305.21 K, 3030 kPa, Liquid | 0.0595
324.75 K, 3030 kPa, Liquid | 0.0529
334.55 K, 1340 kPa, Gas | 0.01759
354.3 K, 1450 kPa, Gas | 0.01925
354.63 K, 1840 kPa, Gas | 0.02057
374.24 K, 2810 kPa, Gas | 0.02329
374.46 K, 2040 kPa, Gas | 0.02202
394.23 K, 3100 kPa, Gas | 0.02512

FC(F)C(F)(F)F [pentafluoroethane] + CC(F)F
[1], x1 = 0.5
Conditions | thermal conductivity [W/m/K]
264.9 K, 1000 kPa, Liquid | 0.0845
273.97 K, 2140 kPa, Liquid | 0.0856
284.7 K, 1000 kPa, Liquid | 0.0799
294.68 K, 3030 kPa, Liquid | 0.0789
294.83 K, 2010 kPa, Liquid | 0.0774
314.1 K, 3080 kPa, Liquid | 0.0646
335.9 K, 1110 kPa, Gas | 0.0178
353.81 K, 1710 kPa, Gas | 0.01953
353.92 K, 1220 kPa, Gas | 0.01934
374.25 K, 1920 kPa, Gas | 0.0231
374.33 K, 2760 kPa, Gas | 0.0237
393.94 K, 3110 kPa, Gas | 0.02557

Cc1ccccc1 [toluene]
[2], 100 kPa, Liquid
Conditions | thermal conductivity [W/m/K]
272.64 K | 0.1372
273.45 K | 0.1366
295.01 K | 0.1308
295.07 K | 0.1307
316.82 K | 0.1253
318.84 K | 0.1243
321.21 K | 0.1237
335.27 K | 0.12
337.36 K | 0.1192
347 K | 0.1175

F/C=C/C(F)(F)F [trans-1,3,3,3-tetrafluoropropene] + C=C(F)C(F)(F)F
[1], x1 = 0.5
Conditions | thermal conductivity [W/m/K]
274.82 K, 1240 kPa, Liquid | 0.0766
294.69 K, 1080 kPa, Liquid | 0.0689
303.67 K, 2050 kPa, Liquid | 0.0679
303.96 K, 2960 kPa, Liquid | 0.0715
323.14 K, 2920 kPa, Liquid | 0.0633
324.62 K, 2070 kPa, Liquid | 0.0622
355.01 K, 940 kPa, Gas | 0.01929
375.04 K, 1740 kPa, Gas | 0.02197
375.09 K, 1010 kPa, Gas | 0.02168
393.98 K, 1860 kPa, Gas | 0.02321
394.38 K, 2520 kPa, Gas | 0.0246
414.22 K, 2920 kPa, Gas | 0.02633

F/C=C/C(F)(F)F [trans-1,3,3,3-tetrafluoropropene] + CC(F)(F)F
[1], x2 = 0.5
Conditions | thermal conductivity [W/m/K]
264.94 K, 910 kPa, Liquid | 0.0772
285.99 K, 2120 kPa, Liquid | 0.0752
286.02 K, 1020 kPa, Liquid | 0.0742
304.35 K, 2020 kPa, Liquid | 0.069
304.36 K, 3040 kPa, Liquid | 0.0685
324.01 K, 2890 kPa, Liquid | 0.0624
345.02 K, 950 kPa, Gas | 0.01913
364.82 K, 1040 kPa, Gas | 0.02103
364.82 K, 1730 kPa, Gas | 0.02117
384.54 K, 1920 kPa, Gas | 0.02317
384.6 K, 2540 kPa, Gas | 0.02357
404.05 K, 2960 kPa, Gas | 0.02606

F/C=C/C(F)(F)F [trans-1,3,3,3-tetrafluoropropene] + FC(F)C(F)(F)F
[1], x2 = 0.5
Conditions | thermal conductivity [W/m/K]
262.72 K, 1000 kPa, Liquid | 0.0781
285.7 K, 1080 kPa, Liquid | 0.0737
285.77 K, 2060 kPa, Liquid | 0.0738
304.23 K, 1940 kPa, Liquid | 0.0636
304.8 K, 3080 kPa, Liquid | 0.0688
324.33 K, 3020 kPa, Liquid | 0.0618
333.94 K, 1120 kPa, Gas | 0.01783
353.67 K, 1810 kPa, Gas | 0.01927
353.84 K, 1230 kPa, Gas | 0.01927
373.56 K, 2020 kPa, Gas | 0.02145
373.67 K, 3040 kPa, Gas | 0.02479
395.41 K, 3040 kPa, Gas | 0.02441

F/C=C/C(F)(F)F [trans-1,3,3,3-tetrafluoropropene] + FCC(F)(F)F
[1], x2 = 0.5
Conditions | thermal conductivity [W/m/K]
274.68 K, 980 kPa, Liquid | 0.0884
305.14 K, 3140 kPa, Liquid | 0.0754
305.18 K, 1040 kPa, Liquid | 0.0739
305.22 K, 2040 kPa, Liquid | 0.0736
324.82 K, 2960 kPa, Liquid | 0.0627
326.02 K, 2030 kPa, Liquid | 0.0621
344.05 K, 870 kPa, Gas | 0.01922
364.05 K, 990 kPa, Gas | 0.02123
364.13 K, 2030 kPa, Gas | 0.02192
383.85 K, 2230 kPa, Gas | 0.02365
384.09 K, 3030 kPa, Gas | 0.02611
403.87 K, 3020 kPa, Gas | 0.02684

O [water]
[2], 100 kPa, Liquid
Conditions | thermal conductivity [W/m/K]
292.8 K | 0.6012
295.01 K | 0.605
303.13 K | 0.6184
303.93 K | 0.6193
305.47 K | 0.622
314.01 K | 0.6259
314.95 K | 0.6275
334.75 K | 0.6479
336.26 K | 0.6496
